Tests used:
[1] = molecular target: T1, OATP1B1 (Homo sapiens, UniProt Q9Y6L6); assay: In vitro uptake assay with [^3H]EbG in HEK-OATP1B1 cells
T1 sequence (Q9Y6L6 1-691): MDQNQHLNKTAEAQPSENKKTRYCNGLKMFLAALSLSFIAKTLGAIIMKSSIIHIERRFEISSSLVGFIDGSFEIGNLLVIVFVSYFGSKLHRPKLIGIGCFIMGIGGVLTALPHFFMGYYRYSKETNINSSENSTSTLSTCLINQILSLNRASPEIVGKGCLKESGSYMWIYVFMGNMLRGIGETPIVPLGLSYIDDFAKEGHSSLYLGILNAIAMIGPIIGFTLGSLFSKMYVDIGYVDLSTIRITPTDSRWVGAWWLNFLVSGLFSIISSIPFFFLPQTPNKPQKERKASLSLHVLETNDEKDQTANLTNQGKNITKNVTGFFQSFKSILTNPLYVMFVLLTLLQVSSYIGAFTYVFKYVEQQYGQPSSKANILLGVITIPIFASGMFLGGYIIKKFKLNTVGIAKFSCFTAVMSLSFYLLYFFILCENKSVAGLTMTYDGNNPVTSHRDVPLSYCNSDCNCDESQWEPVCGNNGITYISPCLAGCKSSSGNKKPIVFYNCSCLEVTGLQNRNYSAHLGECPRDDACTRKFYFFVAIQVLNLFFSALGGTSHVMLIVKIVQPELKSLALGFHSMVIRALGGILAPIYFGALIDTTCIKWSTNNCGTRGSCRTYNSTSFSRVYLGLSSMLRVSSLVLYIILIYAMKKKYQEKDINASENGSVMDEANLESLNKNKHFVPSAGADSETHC
Description: (§1) Transport of 3β-fluorocholic acid by NTCP, OATP1B1 and OATP1B3 was assessed using stable transfected cell lines. Chinese hamster ovary (CHO) cells, Human Embryonic Kidney (HEK), HEK293-OATP1B3 cells were purchased from Solvo Biotechnologies; CHO-NTCP and HEK293-OATP1B1 cells were a kind gift from the same company. CHO cells were cultured in Dulbecco’s modified Eagle’s medium (DMEM)/F12 with 10% fetal calf serum, 0.3 mM L-proline, 2 mM glutamine and penicilline/streptomycine (50 U/mL). HEK cells expressing OATP1B1, OATP1B3 and control cell lines were cultured in DMEM glutamax (high glucose/pyruvate) with 10% fetal calf serum, MEM non-essential amino acid supplement and penicilline/streptomycine (50 U/mL). All cell lines were cultured in a 37°C 5% CO2 environment.
(§2) Transport of FCA by the NTCP, OATP1B1 and OATP1B3 transporters was assessed by inhibition of the tritium labeled model substrates uptake.
(§3) Cells were seeded in 24-well plates at 400,000 cells per well. […] The plates were cooled on ice and 1 mL 1% BSA ice-cold HBSS (with Ca and Mg) was added. Cells were washed twice with 2 mL ice-cold HBSS (with Ca and Mg) and were finally lysed with 250 μL 0.1 M NaOH. […] Of the lysate, 150 μL was used for liquid scintillation counting (TriCarb 2900 TR; Perkin Elmer) and 25 μL was subjected to a BCA assay (ThermoFisher Scientific) to determine protein content. Data points were collected in triplicate. IC50-values were calculated with Graphpad Prism v3.00 (Graphpad software).

[2] = molecular target: T2, OATP1B3 (Homo sapiens, UniProt Q9NPD5); assay: In vitro uptake assay with [^3H]EbG in HEK-OATP1B3 cells
T2 sequence (Q9NPD5 1-702): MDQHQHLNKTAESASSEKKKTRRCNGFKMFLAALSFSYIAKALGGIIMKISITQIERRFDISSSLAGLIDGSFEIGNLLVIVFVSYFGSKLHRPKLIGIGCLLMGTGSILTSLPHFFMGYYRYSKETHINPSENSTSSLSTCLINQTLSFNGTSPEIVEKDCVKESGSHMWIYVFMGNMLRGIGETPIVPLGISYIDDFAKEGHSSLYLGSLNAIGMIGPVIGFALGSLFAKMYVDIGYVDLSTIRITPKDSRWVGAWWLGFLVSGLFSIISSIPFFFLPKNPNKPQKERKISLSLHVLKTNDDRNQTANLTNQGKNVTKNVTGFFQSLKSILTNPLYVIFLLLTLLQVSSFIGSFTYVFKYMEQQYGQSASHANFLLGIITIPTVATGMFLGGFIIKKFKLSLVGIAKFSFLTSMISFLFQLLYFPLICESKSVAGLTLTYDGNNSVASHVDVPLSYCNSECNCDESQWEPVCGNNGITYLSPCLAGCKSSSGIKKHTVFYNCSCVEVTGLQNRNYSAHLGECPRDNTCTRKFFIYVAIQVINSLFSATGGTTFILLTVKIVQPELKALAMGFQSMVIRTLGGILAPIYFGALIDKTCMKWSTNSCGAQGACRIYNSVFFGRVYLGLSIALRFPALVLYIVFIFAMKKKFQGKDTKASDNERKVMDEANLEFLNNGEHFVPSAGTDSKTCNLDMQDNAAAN
Description: as §1, §2, §3

[3] = molecular target: MRP2 (Homo sapiens, UniProt Q92887); assay: In vitro efflux competition assay with [^3H]EbG in MRP2 membrane vesicles
Description: (§4) The assay was performed in 96-well plates. […] The final volume in each well was 30 μL. The plates were incubated for 10 minutes at 37°C and uptake was halted by the addition of 150 μL ice-cold buffer solution. The contents of each well were transferred to a glass fiber filter plate (Multiscreen HTS plates; Merck Millipore) and washed 3 times with 200 μL of ice-cold buffer solution. Vesicles were lysed by incubation with 100 μL 0.1 M NaOH for 10 minutes at room temperature. An 80 μL aliquot of this solution was used for liquid scintillation counting. Data points were collected in triplicate. IC50-values were calculated with Graphpad Prism v3.00.

[4] = cited from earlier work
[5] = molecular target: T3, NTCP (Homo sapiens, UniProt Q14973); assay: In vitro uptake assay with [^3H]TC in CHO-NTCP cells
T3 sequence (Q14973 1-349): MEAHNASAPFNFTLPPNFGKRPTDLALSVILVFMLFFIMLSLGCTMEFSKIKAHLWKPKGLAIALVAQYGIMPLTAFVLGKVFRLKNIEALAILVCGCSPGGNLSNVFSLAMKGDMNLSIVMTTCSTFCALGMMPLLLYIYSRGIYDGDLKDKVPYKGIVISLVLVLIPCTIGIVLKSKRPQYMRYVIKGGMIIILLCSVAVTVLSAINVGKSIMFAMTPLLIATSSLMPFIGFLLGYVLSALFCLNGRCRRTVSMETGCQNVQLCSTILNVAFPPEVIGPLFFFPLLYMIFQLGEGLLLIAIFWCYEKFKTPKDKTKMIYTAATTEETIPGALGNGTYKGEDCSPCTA
Description: as §1, §2
Cells were seeded in 24-well plates at 400,000 cells per well. After 24 hours, the culture medium was removed and cells were washed twice with 1 mL 10 mM HEPES-Hank’s Balanced Salt Solution (HBSS; with Ca and Mg; 37°C pH 7.4) washing buffer. […] Of the dosing solution, 250 μL was added to the washed cells and incubation took place at 37°C for 15 minutes. The plates were cooled on ice and 1 mL 1% BSA ice-cold HBSS (with Ca and Mg) was added. Cells were washed twice with 2 mL ice-cold HBSS (with Ca and Mg) and were finally lysed with 250 μL 0.1 M NaOH. The plates were shaken for 15 minutes at 37°C. Of the lysate, 150 μL was used for liquid scintillation counting (TriCarb 2900 TR; Perkin Elmer) and 25 μL was subjected to a BCA assay (ThermoFisher Scientific) to determine protein content. Data points were collected in triplicate. IC50-values were calculated with Graphpad Prism v3.00 (Graphpad software).

[6] = molecular target: BSEP (Homo sapiens, UniProt O95342); assay: In vitro efflux competition assay with [^3H]TC in BSEP membrane vesicles
Description: as §4

[7] = design: method as in PMID 27513813; conditions: cited from earlier work
[8] = tested on: hepatobiliary transport of [^18F]FCA; assay: Dynamic PET of [^18F]FCA in control, rifampicin and bosentan treated FVB-mice; conditions: pretreated FVB-mice; dynamic μPET
Description: Hepatobiliary transport of the tracer was evaluated in female wild-type FVB mice (5 weeks old, Charles River). The animals were housed in accordance with European Ethics Committee guidelines. The animal studies were approved by the Animal Experimental Ethical Committee of Ghent University (ECD 15/69). Food and water was provided ad libitum. Animals were fasted overnight before the PET-scan.
Mice were anesthetized with 1.5 v:v % isoflurane in 100% O2 for the duration of the experiment. An intravenous polyethylene line was placed in the lateral tail vein. The animals were placed in the small animal PET/CT-scanner (FLEX Triumph II small animal PET/CT-scanner; PET field of view: 7.5 cm axial; 1.3 mm spatial resolution; TriFoil Imaging) on a heated bed. A CT-scan was acquired for anatomical correlation.
The interaction of rifampicin (Sigma Aldrich) and bosentan (Activate Scientific) on in vivo [^18F]FCA transport was examined. FVB-mice were divided into 3 different groups (n = 3 per group): rifampicin, bosentan, and a control DMSO vehicle treated group). Both drugs were administered in doses of 100 mg/kg, intra-peritoneal in DMSO:PBS 70:30 v:v (rifampicin) or DMSO (bosentan) 1 hour before the start of the PET-scan. An additional dose (25 mg/kg for rifampicin in DMSO:PBS 40:60 v:v, 50 mg/kg for bosentan in DMSO) was co-injected intravenously with the tracer.
For each scan, 10 MBq of [^18F]FCA was administered intravenously and a 1 hour dynamic scan was started. Immediately after the dynamic scan, 18 MBq [^18F]FDG was injected intravenously. After 20 minutes, a 20 minutes static scan was taken.
PET-data were obtained in list-mode and were iteratively reconstructed (50 iterations) in frames of 15 seconds for the first 10 minutes, followed by 50 frames of 1 minute. ROI’s were drawn manually over liver, gallbladder and intestines using PMod software. A ROI was drawn in the left ventricle on the static [^18F]FDG scan to obtain an image-derived arterial blood input curve. The uptake of [^18F]FCA in arterial blood, liver, gallbladder and intestines was expressed as a % injected dose (% ID) and normalized for the weight of a 20 gram mouse. Time-activity curves (TAC’s) were generated using these values.
AUC, maximum % ID, and time to peak values were determined for the TAC’s with Graphpad Prism v3.00. Differences between 2 groups were determined with the non-parametric Mann-Whitney U test. P-values ≤ 0.05 were considered significant.

[9] = 15 minutes of incubation without added FCA

Sequence of MRP2 (Q92887 whole entry): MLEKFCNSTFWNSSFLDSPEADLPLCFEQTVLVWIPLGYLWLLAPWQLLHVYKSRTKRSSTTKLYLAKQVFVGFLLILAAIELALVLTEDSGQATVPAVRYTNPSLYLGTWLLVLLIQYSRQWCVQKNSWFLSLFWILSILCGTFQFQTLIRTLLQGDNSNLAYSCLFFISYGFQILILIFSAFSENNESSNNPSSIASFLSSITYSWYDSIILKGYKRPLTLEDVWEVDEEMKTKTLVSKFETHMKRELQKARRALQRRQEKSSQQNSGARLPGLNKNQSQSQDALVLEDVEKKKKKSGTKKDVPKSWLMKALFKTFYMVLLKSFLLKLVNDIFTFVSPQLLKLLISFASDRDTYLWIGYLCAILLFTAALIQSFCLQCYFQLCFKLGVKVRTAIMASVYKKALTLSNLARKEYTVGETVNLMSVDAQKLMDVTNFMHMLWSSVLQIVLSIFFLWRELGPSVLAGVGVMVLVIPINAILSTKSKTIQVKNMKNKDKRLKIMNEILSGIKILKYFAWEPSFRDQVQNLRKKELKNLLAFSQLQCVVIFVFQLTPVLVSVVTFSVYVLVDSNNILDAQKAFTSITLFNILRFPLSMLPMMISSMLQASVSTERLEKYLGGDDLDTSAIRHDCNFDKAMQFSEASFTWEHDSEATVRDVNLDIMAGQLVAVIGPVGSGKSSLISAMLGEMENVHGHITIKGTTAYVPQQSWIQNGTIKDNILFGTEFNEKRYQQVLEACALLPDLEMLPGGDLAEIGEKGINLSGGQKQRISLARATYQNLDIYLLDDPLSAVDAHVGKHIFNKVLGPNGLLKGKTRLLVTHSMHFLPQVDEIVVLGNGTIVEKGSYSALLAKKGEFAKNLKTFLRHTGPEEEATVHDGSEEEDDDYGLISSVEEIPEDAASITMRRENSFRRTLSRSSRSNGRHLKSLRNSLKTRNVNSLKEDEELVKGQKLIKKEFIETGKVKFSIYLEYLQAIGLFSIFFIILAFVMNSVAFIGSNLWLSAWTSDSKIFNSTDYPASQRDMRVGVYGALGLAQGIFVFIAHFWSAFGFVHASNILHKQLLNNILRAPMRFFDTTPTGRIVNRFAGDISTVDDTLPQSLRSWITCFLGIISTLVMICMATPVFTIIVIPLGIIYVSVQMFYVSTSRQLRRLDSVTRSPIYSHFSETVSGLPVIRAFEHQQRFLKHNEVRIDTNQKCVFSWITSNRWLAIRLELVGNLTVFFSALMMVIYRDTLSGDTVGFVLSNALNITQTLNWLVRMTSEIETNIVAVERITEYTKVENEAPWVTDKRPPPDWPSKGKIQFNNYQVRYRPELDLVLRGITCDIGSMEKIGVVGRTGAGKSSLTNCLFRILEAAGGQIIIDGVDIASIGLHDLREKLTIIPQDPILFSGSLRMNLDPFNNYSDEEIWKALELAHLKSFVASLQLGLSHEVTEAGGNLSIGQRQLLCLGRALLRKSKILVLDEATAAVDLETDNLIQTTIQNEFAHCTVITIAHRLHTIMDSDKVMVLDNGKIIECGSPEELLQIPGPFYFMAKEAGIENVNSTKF
Sequence of BSEP (O95342 whole entry): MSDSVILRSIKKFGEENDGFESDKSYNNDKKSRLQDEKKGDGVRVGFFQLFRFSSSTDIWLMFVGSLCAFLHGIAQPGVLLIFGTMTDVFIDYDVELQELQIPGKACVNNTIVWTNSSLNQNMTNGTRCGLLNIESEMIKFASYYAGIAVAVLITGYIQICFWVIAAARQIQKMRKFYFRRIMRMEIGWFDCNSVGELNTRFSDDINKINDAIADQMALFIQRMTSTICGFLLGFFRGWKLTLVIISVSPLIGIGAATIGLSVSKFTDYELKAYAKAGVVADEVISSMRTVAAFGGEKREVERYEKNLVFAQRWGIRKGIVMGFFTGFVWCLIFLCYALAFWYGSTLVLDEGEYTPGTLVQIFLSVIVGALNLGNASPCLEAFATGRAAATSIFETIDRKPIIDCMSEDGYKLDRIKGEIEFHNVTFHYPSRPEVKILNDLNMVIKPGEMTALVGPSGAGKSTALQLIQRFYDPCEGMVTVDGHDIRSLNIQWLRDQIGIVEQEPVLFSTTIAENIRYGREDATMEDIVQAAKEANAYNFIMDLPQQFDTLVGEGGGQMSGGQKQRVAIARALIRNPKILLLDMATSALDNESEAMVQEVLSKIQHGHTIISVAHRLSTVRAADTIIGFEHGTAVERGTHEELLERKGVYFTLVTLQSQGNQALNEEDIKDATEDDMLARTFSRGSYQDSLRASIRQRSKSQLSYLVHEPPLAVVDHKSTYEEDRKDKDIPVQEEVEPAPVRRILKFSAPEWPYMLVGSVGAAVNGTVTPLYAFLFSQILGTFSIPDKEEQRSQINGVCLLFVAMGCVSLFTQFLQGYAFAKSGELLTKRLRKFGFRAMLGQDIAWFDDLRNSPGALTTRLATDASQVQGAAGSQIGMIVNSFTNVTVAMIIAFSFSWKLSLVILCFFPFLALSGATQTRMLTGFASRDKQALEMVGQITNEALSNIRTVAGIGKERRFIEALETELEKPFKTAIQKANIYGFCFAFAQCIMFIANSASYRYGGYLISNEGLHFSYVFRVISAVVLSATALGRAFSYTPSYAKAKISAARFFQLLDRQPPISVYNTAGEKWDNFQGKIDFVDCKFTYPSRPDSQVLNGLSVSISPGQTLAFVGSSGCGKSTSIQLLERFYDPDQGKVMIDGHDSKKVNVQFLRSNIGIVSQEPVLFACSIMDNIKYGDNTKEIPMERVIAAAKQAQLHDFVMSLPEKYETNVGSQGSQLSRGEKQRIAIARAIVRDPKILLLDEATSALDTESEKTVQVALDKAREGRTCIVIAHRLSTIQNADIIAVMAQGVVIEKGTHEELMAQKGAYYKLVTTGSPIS

## C[C@]12CC[C@@H]3c4ccc(O)cc4CC[C@H]3[C@@H]1CC[C@@H]2O[C@@H]1O[C@H](C(=O)O)[C@@H](O)[C@H](O)[C@H]1O [[^3H]EbG, [^3H]estradiol-17β-glucuronide]
[1]; [9]
  uptake in HEK-OATP1B1: 84.0 ± 7.7 pmol/mg protein
[1]; S2 file, 1 µM, 15 minutes
  uptake in HEK-OATP1B1 (kinetic profile): 163.9 pmol/mg protein
[1]; S2 file, 15 minutes
  uptake in HEK-OATP1B1 versus control: 115 times
[2]; [9]
  uptake in HEK-OATP1B3: 8.6 ± 1.3 pmol/mg protein
[2]; S2 file, 1 µM, 15 minutes
  uptake in HEK-OATP1B3 (kinetic profile): 19.0 pmol/mg protein
[2]; S2 file, 15 minutes
  uptake in HEK-OATP1B3 versus control: 13 times
[3]; 10 minutes of incubation
  uptake in MRP2 vesicles: 18.5 ± 3.8 pmol/mg protein

## CO[C@H]1/C=C/O[C@@]2(C)Oc3c(C)c(O)c4c(O)c(c(/C=N/N5CCN(C)CC5)c(O)c4c3C2=O)NC(=O)/C(C)=C\C=C\[C@H](C)[C@H](O)[C@@H](C)[C@@H](O)[C@@H](C)[C@H](OC(C)=O)[C@@H]1C [Rifampicin, rifampicin]
[4]; not told
  effect on ^99mTc mebrofenin canalicular efflux on the SPECT-scan: complete block of canalicular efflux

## C[C@H](CCC(=O)O)[C@H]1CC[C@H]2[C@@H]3[C@H](O)C[C@@H]4C[C@@H](F)CC[C@]4(C)[C@H]3C[C@H](O)[C@]12C [FCA, 3β-Fluoro-7α,12α-Dihydroxy-5β-Cholanic acid]
[1]
  IC50: 10.5 ± 1.1 µM
[5]
  IC50: 6.6 ± 0.8 µM
[6]
  IC50: 253 ± 76 µM
[2]
  IC50: 25.2 ± 12.7 µM
[3]
  IC50: 577 ± 300 µM

## C[C@H](CCC(=O)NCCS(=O)(=O)O)[C@H]1CC[C@H]2[C@@H]3[C@H](O)C[C@@H]4C[C@H](O)CC[C@]4(C)[C@H]3C[C@H](O)[C@]12C [[^3H]TC, [^3H]taurocholate]
[5]; [9]
  uptake in CHO-NTCP cells: 95.2 ± 6.0 pmol/mg protein
[5]; S2 file, 1 µM, 15 minutes of incubation
  uptake in CHO-NTCP cells (kinetic profile): 135.5 pmol/mg protein
[5]; S2 file, 15 minutes
  uptake in CHO-NTCP cells versus control: 101 fold

## [^99mTc]-DTPA-CA [^99mTc CA]
[7]
  max % ID liver: 25.7 % ID
  maximal % ID in gallbladder and intestines: 47.8 % ID
  time to reach max % ID in liver: 12.0 min

## [^99mTc]-DTPA-CDCA [^99mTc CDCA]
[7]
  max % ID liver: 37.3 % ID
  maximal % ID in gallbladder and intestines: 62.2 % ID
  time to reach max % ID in liver: 12.7 min

## Cc1cc(C)c(NC(=O)CN(CC(=O)[O-])CC(=O)[O-])c(C)c1Br.Cc1cc(C)c(NC(=O)CN(CC(=O)[O-])CC(=O)[O-])c(C)c1Br.[99Tc+4] [^99mTc-mebrofenin, ^99mTc Mebrofenin]
[4]; FVB-mice
  % ID in gallbladder and intestines: 78.1 % ID
  maximum % ID liver: 51.8 % ID
  time to reach maximum % ID in liver: 2.2 min

## COc1ccccc1Oc1c(NS(=O)(=O)c2ccc(C(C)(C)C)cc2)nc(-c2ncccn2)nc1OCCO [Bosentan, bosentan, reference compound]
[8]
  effect on hepatobiliary transport of [^18F]FCA: significantly inhibited

— article PMC5342262, “Synthesis, in vitro and in vivo evaluation of 3β-[^18F]fluorocholic acid for the detection of drug-induced cholestasis in mice” (PLoS ONE, 2017)
